# Laboratory results as given in patent US11168079B2, “Alkene compounds as farnesoid x receptor modulators” (BRISTOL-MYERS SQUIBB COMPANY, priority 2017, dated 2021).
# Target: T1, human FXR (Homo sapiens, UniProt Q96RI1)
# T1 sequence (Q96RI1 262-486 limits assumed): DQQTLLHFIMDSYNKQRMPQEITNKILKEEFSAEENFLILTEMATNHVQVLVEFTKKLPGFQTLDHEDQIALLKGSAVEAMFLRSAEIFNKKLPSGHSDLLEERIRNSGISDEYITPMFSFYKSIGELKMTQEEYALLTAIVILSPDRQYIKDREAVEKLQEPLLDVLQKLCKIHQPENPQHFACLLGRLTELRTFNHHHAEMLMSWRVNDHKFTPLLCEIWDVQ
# Assay: transient human FXR/Gal4-luciferase reporter assay (HLE GAL-FXR)
# Settings: FXR EC50 (nM), Gal4-hFXR fusion reporter, HEK293 cells; Table 1
# Method: A Gal4-hFXR fusion construct reporter system was used as the primary assay to characterize compound activity. A construct including 5 copies of the Gal4 promoter response element upstream of a firefly luciferase reporter cDNA was stably expressed in HEK293 cells. This reporter cell line was maintained in Dulbecco's Modified Eagle's medium (DMEM; Gibco) supplemented with 1% penicillin-streptomycin (P/S) solution, 500 μg/mL Zeocin and 10% charcoal/dextran-treated fetal bovine serum (cs-FBS) at 37° C. in a humidified 5% CO2 atmosphere. Another plasmid was constructed in which the human cytomegalovirus promoter in the pcDNA3.1 vector directs the expression of the cDNA encoding a fusion protein comprised of the DNA binding domain from the Gal4 transcription factor fused to the ligand binding domain from human FXR.
# For compound testing, 100 nL of the compounds (serial dilutions in DMSO) are dispensed with an Echo acoustic dispenser (Labcyte) into the wells of a Corning/Costar clear bottom 384-well white plate. The transfected cells are harvested, counted, and diluted such that 10-25,000 cells in 25 μL are plated into each well of the 384-well compound assay plate. The compound-treated cells are incubated overnight at 37° C. in a humidified 5% CO2 atmosphere. The next morning 25 μL of Steady-Glo (Promega) are added to each well of the plate, the mixture is incubated for 15 min. with shaking, and luminescence is measured on an Envision (Perkin Elmer) plate reader.
row,SMILES,EC50 [nM]
1,COc1cc(C(=O)O)nc2ccc(N3CCC(/C=C/c4c(-c5ccccc5C(F)(F)F)noc4C4CC4)CC3)cc12 [Example 100],4
2,O=C(O)c1cc(-c2nc(N3CC4C(/C=C/c5c(-c6c(Cl)cncc6Cl)noc5C5CC5)C4C3)no2)cc(C(F)(F)F)c1 (stereo not drawn) [Example 123],206
3,COc1cc(C(=O)O)nc2sc(N3CC4C(/C=C/c5c(-c6c(Cl)cncc6Cl)noc5C5CC5)C4C3)nc12 (stereo not drawn) [Example 124],284
4,O=C(O)c1cc(OC2CCC2)c2cc(N3CC[C@H](/C=C/c4c(-c5ccccc5C(F)(F)F)noc4C4CC4)C3)ccc2n1 [Example 148],2
5,CCOc1cc(N2CC3C(/C=C/c4c(-c5ccccc5C(F)(F)F)noc4C4CC4)C3C2)cnc1C(N)=O (stereo not drawn) [Example 158],555
6,O=C(O)c1ccc2nc(N3CC4C(/C=C/c5c(-c6c(Cl)cccc6Cl)noc5C5CC5)C4C3)sc2n1 (stereo not drawn) [Example 81],89
7,O=C(O)c1ccc2cc(N3CC4C(/C=C/c5c(-c6c(Cl)cncc6Cl)noc5C5CC5)C4C3)ccc2n1 (stereo not drawn) [Example 82],267
8,O=C(O)c1cc(OC2COC2)c2cc(N3CC4C(/C=C/c5c(-c6ccccc6C(F)(F)F)noc5C5CC5)C4C3)ccc2n1 (stereo not drawn) [Example 134],15
9,O=C(O)c1ccc2oc(N3CCC(/C=C/c4c(-c5c(Cl)cccc5Cl)noc4C4CC4)CC3)nc2c1 [Example 23],156
10,COc1cc(C(=O)O)nc2sc(N3CC(/C=C/c4c(-c5ccccc5C(F)(F)F)noc4C4CC4)C3)nc12 [Example 153],473
11,O=C(O)c1cc(OC2CCOC2)c2cc(N3CC4C(/C=C/c5c(-c6c(Cl)cncc6Cl)noc5C5CC5)C4C3)ccc2n1 (stereo not drawn) [Example 120],18
12,COc1cc(C(=O)O)cc(-c2ccc(N3CC(/C=C/c4c(-c5ccccc5C(F)(F)F)noc4C4CC4)C3)nc2)c1 [Example 222],34
13,O=C(O)c1cc(C(F)(F)F)c2cc(N3CC4C(/C=C/c5c(-c6c(Cl)cccc6Cl)noc5C5CC5)C4C3)ccc2n1 (stereo not drawn) [Example 52],77
14,O=C(O)c1cc2ccc(N3CCC(/C=C/c4c(-c5cccnc5C(F)(F)F)noc4C4CC4)CC3)cc2cn1 [Example 103],189
15,O=C(O)c1cccc2nc(N3CC4C(/C=C/c5c(-c6c(Cl)cncc6Cl)noc5C5CC5)C4C3)sc12 (stereo not drawn) [Example 93],280
16,Cn1cc(C(=O)O)c2ccc(N3CC4C(/C=C/c5c(-c6c(Cl)cncc6Cl)noc5C5CC5)C4C3)cc21 (stereo not drawn) [Example 89],31
17,CCOc1cc(N2CC3C(/C=C/c4c(-c5ccccc5C(F)(F)F)noc4C4CC4)C3C2)cnc1C(=O)O (stereo not drawn) [Example 163],424
18,COc1cc(C(=O)O)nc2ccc(N3CC(/C=C/c4c(-c5ccccc5OC(F)(F)F)noc4C4CC4)C3)cc12 [Example 206],216
19,O=C(O)c1cc(O[C@H]2C[C@H](F)C2)c2cc(N3CC4C(/C=C/c5c(-c6ccccc6C(F)(F)F)noc5C5CC5)C4C3)ccc2n1 (stereo partly drawn) [Example 199],63
20,O=C(O)c1cc(OC2COC2)c2cc(N3CC(/C=C/c4c(-c5ccccc5C(F)(F)F)noc4C4CC4)C3)ccc2n1 [Example 151],96
21,O=C(O)c1cc(OC2COC2)c2cc(N3CC(/C=C/c4c(-c5c(Cl)cncc5Cl)noc4C4CC4)C3)ccc2n1 [Example 160],65
22,O=C(O)c1ccc(N2CCC(/C=C/c3c(-c4ccccc4OC(F)(F)F)noc3C3CC3)CC2)nc1 [Example 42],512
23,O=C(O)c1cccc(N2CCC(/C=C/c3c(-c4c(Cl)cccc4Cl)noc3C3CC3)CC2)n1 [Example 13],206
24,O=C(O)c1cc(C(F)(F)F)c2cc(N3CC4C(/C=C/c5c(-c6ccccc6C(F)(F)F)noc5C5CC5)C4C3)ccc2n1 (stereo not drawn) [Example 75],577

row,SMILES,EC50 [nM]
1,O=C(O)c1cnc2ccc(N3CC4C(/C=C/c5c(-c6ccccc6C(F)(F)F)noc5C5CC5)C4C3)cc2n1 (stereo not drawn) [Example 138],2470
2,COc1cc(C(=O)O)cc(-c2nnc(N3CC4C(/C=C/c5c(-c6c(Cl)cncc6Cl)noc5C5CC5)C4C3)s2)c1 (stereo not drawn) [Example 223],1400
3,O=C(O)c1ccc(N2CCC(/C=C/c3c(-c4c(Cl)cccc4Cl)noc3C3CC3)CC2)cn1 [Example 30],78
4,O=C(O)c1cc(C(F)(F)F)c2cc(N3CCC(/C=C/c4c(-c5ccccc5C(F)(F)F)noc4C4CC4)CC3)ccc2n1 [Example 45],12
5,FC(F)(F)Oc1ccccc1-c1noc(C2CC2)c1/C=C/C1CCN(c2ccc(-c3nn[nH]n3)cc2)CC1 [Example 62],20
6,O=C(O)c1ccc(N2CC3C(/C=C/c4c(-c5c(Cl)cccc5Cl)noc4C4CC4)C3C2)nc1 (stereo not drawn) [Example 144],424
7,"N#Cc1ccc(N2CCC(/C=C/c3c(-c4c(Cl)cccc4Cl)noc3C3CC3)CC2)cc1 [Example 50, (E)-4-(4-(2-(5-cyclopropyl-3-(2,6-dichlorophenyl)isoxazol-4-yl)vinyl)piperidin-1-yl)benzonitrile]",671
8,O=C(O)c1cc(OC2COC2)cc(-c2nc(N3CC4C(/C=C/c5c(-c6c(Cl)cncc6Cl)noc5C5CC5)C4C3)no2)c1 (stereo not drawn) [Example 137],932
9,CC(C)Oc1cc(C(=O)O)nc2ccc(N3CCC(/C=C/c4c(-c5ccccc5OC(F)(F)F)noc4C4CC4)CC3)cc12 [Example 108],22
10,O=C(O)c1cc(OC2CCC2)c2cc(N3CC(/C=C/c4c(-c5ccccc5C(F)(F)F)noc4C4CC4)C3)ccc2n1 [Example 150],58
11,O=C(O)c1cnc2cc(N3CC(/C=C/c4c(-c5c(Cl)cncc5Cl)noc4C4CC4)C3)ccc2n1 [Example 167],308
12,O=C(O)c1cc(OC2CC(F)(F)C2)c2cc(N3CC(/C=C/c4c(-c5ccccc5C(F)(F)F)noc4C4CC4)C3)ccc2n1 [Example 152],228
13,O=C(O)c1cc(F)c2nc(N3CCC(/C=C/c4c(C5CC5)cnn4-c4c(Cl)cccc4Cl)CC3)sc2c1 [Example 32],47
14,O=C(O)c1cnc2cc(N3CC4C(/C=C/c5c(-c6c(Cl)cncc6Cl)noc5C5CC5)C4C3)ccc2n1 (stereo not drawn) [Example 161],192
15,O=C(O)c1cc(O[C@H]2CCOC2)c2cc(N3CC(/C=C/c4c(-c5cccnc5C(F)(F)F)noc4C4CC4)C3)ccc2n1 [Example 189],650
16,CC(C)Oc1cc(C(=O)O)nc2ccc(N3CCC(/C=C/c4c(-c5ccncc5C(F)(F)F)noc4C4CC4)CC3)cc12 [Example 110],5
17,O=C(O)c1cccc(-c2nc(N3CC4C(/C=C/c5c(-c6c(Cl)cncc6Cl)noc5C5CC5)C4C3)no2)c1 (stereo not drawn) [Example 117],494
18,O=C(O)c1ccc(N2CC3C(/C=C/c4c(-c5c(Cl)cncc5Cl)noc4C4CC4)C3C2)cc1 (stereo not drawn) [Example 96],66
19,O=C(O)c1cc(O[C@@H]2CCOC2)c2cc(N3CC4C(/C=C/c5c(-c6cccnc6C(F)(F)F)noc5C5CC5)C4C3)ccc2n1 (stereo partly drawn) [Example 157],165
20,O=C(O)c1cnc(N2CCC(/C=C/c3c(-c4c(Cl)cccc4Cl)noc3C3CC3)CC2)c(F)c1 [Example 21],20
21,O=C(O)c1cc(O[C@H]2CCOC2)c2cc(N3CC4C(/C=C/c5c(-c6c(Cl)cncc6Cl)noc5C5CC5)C4C3)ccc2n1 (stereo partly drawn) [Example 128],27
22,O=C(O)c1ccc(N2CC3C(/C=C/c4c(-c5c(Cl)cncc5Cl)noc4C4CC4)C3C2)nc1 (stereo not drawn) [Example 102],1270
23,O=C(O)c1cc(C(F)(F)F)c2cc(N3CCC(/C=C/c4c(-c5c(Cl)cncc5Cl)noc4C4CC4)CC3)ccc2n1 [Example 83],42

# Same assay, conditions: HLE GAL-FXR EC50, Gal4-hFXR fusion reporter, HEK293 cells
row,SMILES,EC50 [nM]
1,"Cn1cc(C(=O)O)c2ccc(N3CCC(/C=C/c4c(-c5c(Cl)cccc5Cl)noc4C4CC4)CC3)cc21 [Example 2, (E)-6-(4-(2-(5-Cyclopropyl-3-(2,6-dichlorophenyl)isoxazol-4-yl)vinyl)piperidin-1-yl)-1-methyl-1H-indole-3-carboxylic acid]",5
2,"COc1cc(C(=O)O)cc(-c2nc(N3CC4C(/C=C/c5c(-c6c(Cl)cncc6Cl)noc5C5CC5)C4C3)ns2)c1 (stereo not drawn) [Example 210, (E)-3-(3-(6-(2-(5-Cyclopropyl-3-(3,5-dichloropyridin-4-yl)isoxazol-4-yl)vinyl)-3-azabicyclo[3.1.0]hexan-3-yl)-1,2,4-thiadiazol-5-yl)-5-methoxybenzoic acid]",670
3,"C/C(=C\c1c(-c2c(Cl)cccc2Cl)noc1C1CC1)C1CCN(c2nc3c(F)cc(C(=O)O)cc3s2)CC1 [Example 4, (E)-2-(4-(1-(5-Cyclopropyl-3-(2,6-dichlorophenyl)isoxazol-4-yl)prop-1-en-2-yl)piperidin-1-yl)-4-fluorobenzo[d]thiazole-6-carboxylic acid]",2060
4,"O=C(O)c1cc(OC2CC2)c2cc(N3CC4C(/C=C/c5c(-c6ccccc6C(F)(F)F)noc5C5CC5)C4C3)ccc2n1 (stereo not drawn) [Example 184, (E)-4-Cyclopropoxy-6-(6-(2-(5-cyclopropyl-3-(2-(trifluoromethyl)phenyl)-isoxazol-4-yl)vinyl)-3-azabicyclo[3.1.0]hexan-3-yl)quinoline-2-carboxylic acid]",50
5,"O=C(O)c1ccc(-c2nc(N3CC4C(/C=C/c5c(-c6c(Cl)cncc6Cl)noc5C5CC5)C4C3)no2)cc1 (stereo not drawn) [Example 116, (E)-4-(3-(6-(2-(5-Cyclopropyl-3-(3,5-dichloropyridin-4-yl)isoxazol-4-yl)vinyl)-3-azabicyclo[3.1.0]hexan-3-yl)-1,2,4-oxadiazol-5-yl)benzoic acid]",862
6,"O=C(O)c1ccc(N2CCC(/C=C/c3c(-c4c(Cl)cccc4Cl)noc3C3CC3)CC2)nc1 [Example 1, (E)-6-(4-(2-(5-Cyclopropyl-3-(2,6-dichlorophenyl)isoxazol-4-yl)vinyl)piperidin-1-yl)nicotinic acid]",14

# Same assay, conditions: read-out: FXR EC50; Gal4-hFXR fusion reporter, HEK293 cells; Table 1
row,SMILES,EC50 [nM]
1,COCc1cc(C(=O)O)nc2ccc(N3CC(/C=C/c4c(-c5cccnc5C(F)(F)F)noc4C4CC4)C3)cc12 [Example 171],65
